Results on 31 molecules are retold here after US20230141569A1, “FLUORESCENT DYE, AND PREPARATION METHOD AND USES THEREOF” (FLUORESCENCE DIAGNOSIS (SHANGHAI) BIOTECH COMPANY LTD., priority 2020, published 2023).

Data set [1] in a line: Viscosity response: fluorescence in glycerin vs methanol (Test Example 1). The format is physicochemical. Conditions: final concentration 1×10^−5 M; for Glycerin/Methanol Fluorescence Intensity Ratio: excited at maximum excitation wavelength of each dye; for Maximum Excitation Wavelength (nm): glycerin and methanol.
The subject of data set [2] is RNA aptamer. Description: Labeling intracellular RNA aptamer in cells (Test Example 4, FIG. 20A/20B). Conditions: for fluorescence of cells expressing the RNA aptamer: FIG. 20A; for fluorescence of cells not expressing the RNA aptamer: FIG. 20B. The format is cell-based. The text has this: FIGS. 20A and 20B are the application of molecular rotors IV-1, IV-2, IV-3, IV-4, IV-5, IV-6, IV-17, IV-18, IV-19, IV-20, IV-21, IV-22 in labeling intracellular RNA aptamer, wherein FIG. 20A are cells expressing the target RNA aptamer, and FIG. 20B are cells not expressing the target RNA aptamer;

The nature of data set [3]: Fluorescence emission at different viscosity conditions, diethanol-glycerol mixed solution (Test Example 2). In kind it is physicochemical. Conditions: 1×10^−5 M, excited at 480 nm.
The subject of data set [4] is RNA aptamer. Description: Optical properties after binding to RNA aptamer (Test Example 4). The format is biochemical. Conditions: for Em/nm / Ex/nm / ε / QY (−): after binding to RNA aptamer; for QY (−): relative method with Rhodamine 6G as the standard; for compound fluorescence after binding to RNA aptamer: excited at a suitable wavelength.

As for `CCN1C(=O)/C(=C/c2cc(F)c(O)c(Cl)c2)N=C1/C=C/c1ccc(C#N)cc1` [IV-10], in data set [1], the “Glycerin/Methanol Fluorescence Intensity Ratio” value was found to be 779 and the “Maximum Excitation Wavelength (nm)” value amounted to 620 nm.

Regarding `O=C1NC(/C=C/c2ccc(Br)cc2)=NC/1=C\c1cc(Cl)c(O)c(Cl)c1` [IV-16], in data set [1], the “Glycerin/Methanol Fluorescence Intensity Ratio” value came to 689 and the “Maximum Excitation Wavelength (nm)” value turned out to be 595 nm.

In the case of `CN1C(=O)/C(=C/c2ccc(N(C)CCS(=O)(=O)O)cc2)N=C1/C=C/c1ccc(C#N)cc1` [IV-28], in data set [1], the “Glycerin/Methanol Fluorescence Intensity Ratio” value is reported as 942 and the “Maximum Excitation Wavelength (nm)” value was found to be 620 nm.

With `C=CCOCCN(C)c1ccc(/C=C2N=C(/C=C/c3ccccc3C#N)N(C)C\2=S)cc1` [IV-23], in data set [1], the “Glycerin/Methanol Fluorescence Intensity Ratio” value is recorded as 915 and the “Maximum Excitation Wavelength (nm)” value amounted to 617 nm.

`CN1C(=O)/C(=C/c2ccc(O)c(Br)c2)N=C1/C=C/c1cccc(Cl)c1` [IV-15]: in data set [1], the “Glycerin/Methanol Fluorescence Intensity Ratio” value is recorded as 730 and the “Maximum Excitation Wavelength (nm)” value came to 586 nm.

Turning to `C#CCOCCN(C)c1ccc(/C=C2N=C(/C=C/c3ccc(F)cc3)N(C)C\2=O)cc1` [IV-37], in data set [1], the “Glycerin/Methanol Fluorescence Intensity Ratio” value is on record as 801 and the “Maximum Excitation Wavelength (nm)” value is recorded as 580 nm.

As to `CN1C(=O)/C(=C/c2ccc(N(C)CCO)cc2)N=C1/C=C/c1ccc(O)cc1` [IV-20], in data set [2], the “fluorescence of cells expressing the RNA aptamer” value is on record as “bright fluorescence” and the “fluorescence of cells not expressing the RNA aptamer” value is “no fluorescence”. Besides, in data set [3], the “fluorescence intensity at different viscosity conditions” value is “gradually increasing fluorescence intensity”. In data set [4], the Em/nm came to 577 nm, the Ex/nm is recorded as 512 nm, the “ε” value came to 25500 M⁻¹ cm⁻¹ and the “QY (−)” value is listed as 0.36. Further, the “compound fluorescence after binding to RNA aptamer” value (“compound fluorescence after binding” for short) in data set [4] is given as “noticeably activated”. Further, in data set [1], the “Glycerin/Methanol Fluorescence Intensity Ratio” value is listed as 781 and the “Maximum Excitation Wavelength (nm)” value is recorded as 577 nm.

`CCN1C(=O)/C(=C/c2ccc(O)c(Cl)c2)N=C1/C=C/c1ccc(I)cc1` [IV-14]: in data set [1], the “Glycerin/Methanol Fluorescence Intensity Ratio” value is reported as 699 and the “Maximum Excitation Wavelength (nm)” value worked out at 585 nm.

As to `CN1C(=O)/C(=C/c2ccc(N(C)CCN)cc2)N=C1/C=C/c1cccc(F)c1` [IV-31], in data set [1], the “Glycerin/Methanol Fluorescence Intensity Ratio” value is listed as 902 and the “Maximum Excitation Wavelength (nm)” value worked out at 581 nm.

On to `CC1=CC(C)(C)N(C)c2ccc(/C=C3N=C(/C=C/c4ccc(C#N)cc4)N(C)C\3=O)cc21` [IV-33], for which, in data set [1], the “Glycerin/Methanol Fluorescence Intensity Ratio” value turned out to be 729 and the “Maximum Excitation Wavelength (nm)” value turned out to be 605 nm.

Turning to `CN1C(=O)/C(=C/c2cnc3cc(N(C)C)ccc3c2)N=C1/C=C/c1cccc(C#N)c1` [IV-38], in data set [1], the “Glycerin/Methanol Fluorescence Intensity Ratio” value amounted to 529 and the “Maximum Excitation Wavelength (nm)” value is given as 705 nm.

Turning to `CN1C(=O)/C(=C/c2cc(Cl)c(O)c(Cl)c2)N=C1/C=C/c1ccc(Br)cc1` [IV-13], in data set [1], the “Glycerin/Methanol Fluorescence Intensity Ratio” value was determined as 711 and the “Maximum Excitation Wavelength (nm)” value came to 590 nm.

Consider `CN1C(=O)/C(=C/c2ccc(N(C)CCO)cc2)N=C1/C=C/c1cccc(O)c1` [IV-17], for which, in data set [2], the “fluorescence of cells expressing the RNA aptamer” value is on record as “bright fluorescence” and the “fluorescence of cells not expressing the RNA aptamer” value is listed as “no fluorescence”. Moreover, the “fluorescence intensity at different viscosity conditions” value in data set [3] was “gradually increasing fluorescence intensity”. For the same molecule, in data set [4], the Em/nm is given as 582 nm, the Ex/nm is given as 524 nm, the “ε” value amounted to 32000 M⁻¹ cm⁻¹ and the “QY (−)” value is on record as 0.47. Besides, in data set [4], the “compound fluorescence after binding” value is “noticeably activated”. Besides, in data set [1], the “Glycerin/Methanol Fluorescence Intensity Ratio” value came out at 655 and the “Maximum Excitation Wavelength (nm)” value worked out at 575 nm.

For `CN1C(=S)/C(=C/c2cc(F)c(O)c(F)c2)N=C1/C=C/c1ccc(F)cc1` [IV-7], in data set [1], the “Glycerin/Methanol Fluorescence Intensity Ratio” value is 873 and the “Maximum Excitation Wavelength (nm)” value was found to be 570 nm.

Consider `CN1C(=O)/C(=C/c2cc(F)c(O)c(F)c2)N=C1/C=C/c1cccc(O)c1` [IV-4], for which, in data set [2], the “fluorescence of cells expressing the RNA aptamer” value is “bright fluorescence” and the “fluorescence of cells not expressing the RNA aptamer” value was “no fluorescence”. In addition, the “fluorescence intensity at different viscosity conditions” value in data set [3] was “gradually increasing fluorescence intensity”. In data set [4], the Em/nm was 574 nm, the Ex/nm was determined as 490 nm, the “ε” value turned out to be 23333 M⁻¹ cm⁻¹ and the “QY (−)” value was 0.37. Also, the “compound fluorescence after binding” value in data set [4] is on record as “noticeably activated”. Further, in data set [1], the “Glycerin/Methanol Fluorescence Intensity Ratio” value is on record as 687 and the “Maximum Excitation Wavelength (nm)” value worked out at 574 nm.

As for `CN1C(=O)/C(=C/c2ccc(N(C)CCO)cc2)N=C1/C=C/c1cccc(F)c1` [IV-19], in data set [2], the “fluorescence of cells expressing the RNA aptamer” value is given as “bright fluorescence” and the “fluorescence of cells not expressing the RNA aptamer” value was “no fluorescence”. In addition, the “fluorescence intensity at different viscosity conditions” value in data set [3] is “gradually increasing fluorescence intensity”. Besides, in data set [4], the Em/nm was determined as 590 nm, the Ex/nm is 522 nm, the “ε” value was found to be 30000 M⁻¹ cm⁻¹ and the “QY (−)” value is 0.43. For the same molecule, the “compound fluorescence after binding” value in data set [4] is reported as “noticeably activated”. Also, in data set [1], the “Glycerin/Methanol Fluorescence Intensity Ratio” value worked out at 821 and the “Maximum Excitation Wavelength (nm)” value turned out to be 577 nm.

As to `CN1C(=O)/C(=C/c2cc(F)c(O)c(F)c2)N=C1/C=C/c1ccc(C#N)cc1` [IV-1], in data set [2], the “fluorescence of cells expressing the RNA aptamer” value is reported as “bright fluorescence” and the “fluorescence of cells not expressing the RNA aptamer” value was “no fluorescence”. Moreover, the “fluorescence intensity at different viscosity conditions” value in data set [3] is given as “gradually increasing fluorescence intensity”. In addition, in data set [4], the Em/nm was found to be 618 nm, the Ex/nm is reported as 510 nm, the “ε” value came to 20667 M⁻¹ cm⁻¹ and the “QY (−)” value is on record as 0.17. Further, the “compound fluorescence after binding” value in data set [4] is “noticeably activated”. Besides, in data set [1], the “Glycerin/Methanol Fluorescence Intensity Ratio” value turned out to be 987 and the “Maximum Excitation Wavelength (nm)” value is listed as 618 nm.

As for `COCCOCCOCCOCC(=O)OCCN(C)c1ccc(/C=C2N=C(/C=C/c3ccc(C#N)cc3)N(C)C\2=O)cc1` [IV-29], in data set [1], the “Glycerin/Methanol Fluorescence Intensity Ratio” value came out at 829 and the “Maximum Excitation Wavelength (nm)” value was 618 nm.

In the case of `CN1C(=S)/C(=C/c2cc(F)c(O)c(F)c2)N=C1/C=C/c1ccc(C#N)cc1` [IV-8], in data set [1], the “Glycerin/Methanol Fluorescence Intensity Ratio” value was 861 and the “Maximum Excitation Wavelength (nm)” value is 638 nm.

Consider `CCCCCCN(CCCCCC)c1cnc(/C=C2N=C(/C=C/c3cccc(Cl)c3)N(C)C\2=O)cn1` [IV-25], for which, in data set [1], the “Glycerin/Methanol Fluorescence Intensity Ratio” value is recorded as 918 and the “Maximum Excitation Wavelength (nm)” value amounted to 591 nm.

Regarding `CCCN1C(=S)/C(=C/c2ccc(N(C)C)nc2)N=C1/C=C/c1ccccc1F` [IV-24], in data set [1], the “Glycerin/Methanol Fluorescence Intensity Ratio” value is listed as 934 and the “Maximum Excitation Wavelength (nm)” value turned out to be 551 nm.

Regarding `CN1C(=O)/C(=C/c2cc(F)c(O)c(F)c2)N=C1/C=C/c1ccc(F)cc1` [IV-5], in data set [2], the “fluorescence of cells expressing the RNA aptamer” value was “bright fluorescence” and the “fluorescence of cells not expressing the RNA aptamer” value is “no fluorescence”. Moreover, the “fluorescence intensity at different viscosity conditions” value in data set [3] is listed as “gradually increasing fluorescence intensity”. In addition, in data set [4], the Em/nm was 570 nm, the Ex/nm turned out to be 492 nm, the “ε” value turned out to be 23000 M⁻¹ cm⁻¹ and the “QY (−)” value is 0.33. The “compound fluorescence after binding” value in data set [4] is listed as “noticeably activated”. Further, in data set [1], the “Glycerin/Methanol Fluorescence Intensity Ratio” value was found to be 861 and the “Maximum Excitation Wavelength (nm)” value was found to be 570 nm.

In the case of `CN1C(=O)/C(=C/c2ccc(N)cc2)N=C1/C=C/c1ccc(C#N)cc1` [IV-35], in data set [1], the “Glycerin/Methanol Fluorescence Intensity Ratio” value is reported as 776 and the “Maximum Excitation Wavelength (nm)” value turned out to be 561 nm.

`CCCN1C(=O)/C(=C/c2cc(F)c(O)c(I)c2)N=C1/C=C/c1ccc(Cl)cc1` [IV-12]: in data set [1], the “Glycerin/Methanol Fluorescence Intensity Ratio” value was 898 and the “Maximum Excitation Wavelength (nm)” value is listed as 573 nm.

For `CCCN1C(=O)/C(=C/c2cc3c4c(c2)CCCN4CCC3)N=C1/C=C/c1ccc(C#N)cc1` [IV-27], in data set [1], the “Glycerin/Methanol Fluorescence Intensity Ratio” value is given as 890 and the “Maximum Excitation Wavelength (nm)” value is reported as 600 nm.

Consider `CN1C(=O)/C(=C/c2ccc(O)c(F)c2)N=C1/C=C/c1ccc(C#N)cc1` [IV-9], for which, in data set [1], the “Glycerin/Methanol Fluorescence Intensity Ratio” value was determined as 697 and the “Maximum Excitation Wavelength (nm)” value was determined as 615 nm.

Regarding `COC(=O)CNCCN(C)c1ccc(/C=C2N=C(/C=C/c3ccc(Br)cc3)N(C)C\2=O)cc1` [IV-30], in data set [1], the “Glycerin/Methanol Fluorescence Intensity Ratio” value is recorded as 921 and the “Maximum Excitation Wavelength (nm)” value turned out to be 582 nm.

On to `CN(C)CCN(C)c1ccc(/C=C2N=C(/C=C/c3cccc(F)c3)N(C)C\2=O)cc1` [IV-32], for which, in data set [1], the “Glycerin/Methanol Fluorescence Intensity Ratio” value came out at 999 and the “Maximum Excitation Wavelength (nm)” value came out at 580 nm.

Take `CN1C(=O)/C(=C/c2ccc3cc(N(C)CCO)ccc3c2)N=C1/C=C/c1cccc(O)c1` [IV-36]: in data set [1], the “Glycerin/Methanol Fluorescence Intensity Ratio” value is 792 and the “Maximum Excitation Wavelength (nm)” value worked out at 690 nm.

Take `CN1C(=O)/C(=C/c2cnc(N(C)CCC#N)nc2)N=C1/C=C/c1ccccc1I` [IV-26]: in data set [1], the “Glycerin/Methanol Fluorescence Intensity Ratio” value was 937 and the “Maximum Excitation Wavelength (nm)” value was found to be 555 nm.

Take `CN1C(=O)/C(=C/c2ccc3c(c2)OCCN3C)N=C1/C=C/c1ccc(F)cc1` [IV-34]: in data set [1], the “Glycerin/Methanol Fluorescence Intensity Ratio” value amounted to 810 and the “Maximum Excitation Wavelength (nm)” value was determined as 603 nm.
